Biological target: T1, ALK5 kinase (Homo sapiens, UniProt P36897)
T1 construct: GST; purchased Thermo Fisher Scientific Solutions
T1 sequence (P36897 34-503): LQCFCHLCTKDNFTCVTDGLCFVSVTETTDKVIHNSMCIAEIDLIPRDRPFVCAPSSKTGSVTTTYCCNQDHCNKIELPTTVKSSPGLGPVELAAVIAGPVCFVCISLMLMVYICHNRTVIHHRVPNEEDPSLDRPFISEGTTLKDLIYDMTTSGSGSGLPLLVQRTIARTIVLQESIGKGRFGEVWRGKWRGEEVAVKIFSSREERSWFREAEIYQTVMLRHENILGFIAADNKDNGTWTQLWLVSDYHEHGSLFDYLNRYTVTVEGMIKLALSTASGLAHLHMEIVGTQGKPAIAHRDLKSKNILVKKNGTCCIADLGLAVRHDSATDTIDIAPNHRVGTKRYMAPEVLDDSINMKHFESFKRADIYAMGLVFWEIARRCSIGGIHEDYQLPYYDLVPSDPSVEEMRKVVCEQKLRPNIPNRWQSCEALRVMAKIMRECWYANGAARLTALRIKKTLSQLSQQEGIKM
Assay: Activity inhibition test on ALK5 enzyme (LanthaScreen Eu binding kinase assay)
Details: kinase tracer 178, 60 minutes at room temperature
Summary of the method: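 TR-FRET tracer-displacement format with final 5 nM ALK5, 2 nM Eu-GST antibody and 10 nM kinase tracer 178. Compound dilution series ran 1 μM–0.0001 μM, incubated 60 min at room temperature with stirring. Fluorescence was read ([…]), and IC50 came from percent inhibition versus control.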

**Q.** Which IC50 does the source give for `Cc1cccc(-n2nc(C(=O)Nc3cccc(C(F)(F)F)c3)cc2-c2ccc3nccnc3c2)n1` [Example 181, 1-(6-methylpyridin-2-yl)-5-(quinoxalin-6-yl)-N-(3-(trifluoromethyl)phenyl)-1H-pyrazole-3-carboxyamide] here?
**A.** ~100 nM

**Q.** Which IC50 does the source give for `CNC(=O)c1ccc(NC(=O)c2cc(-c3ccc4nccnc4c3)n(-c3cccc(C)n3)n2)cc1` [Example 182, N-(4-(methylcarbamoyl)phenyl)-1-(6-methylpyridin-2-yl)-5-(quinoxalin-6-yl)-1H-pyrazole-3-carboxyamide] here?
**A.** < 100 nM

**Q.** With `Cc1cccc(-n2nc(C(=O)Nc3ccc(F)cc3)cc2-c2ccc3nccnc3c2)n1` [Example 183, N-(4-fluorophenyl)-1-(6-methylpyridin-2-yl)-5-(quinoxalin-6-yl)-1H-pyrazole-3-carboxyamide] as the compound, how does the IC50 read?
**A.** 10 to 100 nM

**Q.** `Cc1cccc(-n2nc(C(=O)Nc3cccc(F)c3)cc2-c2ccc3nccnc3c2)n1` [Example 184, N-(3-fluorophenyl)-1-(6-methylpyridin-2-yl)-5-(quinoxalin-6-yl)-1H-pyrazole-3-carboxyamide] was tested. Which IC50 did it give?
**A.** 10 to 100 nM

**Q.** `Cc1cccc(-n2nc(C(=O)Nc3ccccc3F)cc2-c2ccc3nccnc3c2)n1` [Example 185, N-(2-fluorophenyl)-1-(6-methylpyridin-2-yl)-5-(quinoxalin-6-yl)-1H-pyrazole-3-carboxyamide] was tested. Which IC50 did it give?
**A.** < 100 nM

**Q.** How did the IC50 turn out when `Cc1cccc(-n2nc(C(=O)Nc3ccc(F)c(F)c3)cc2-c2ccc3nccnc3c2)n1` [Example 186, N-(3,4-difluorophenyl)-1-(6-methylpyridin-2-yl)-5-(quinoxalin-6-yl)-1H-pyrazole-3-carboxyamide] was run?
**A.** 10 to 100 nM

**Q.** With `Cc1cccc(-n2nc(C(=O)Nc3ccc(F)cc3F)cc2-c2ccc3nccnc3c2)n1` [Example 187, N-(2,4-difluorophenyl)-1-(6-methylpyridin-2-yl)-5-(quinoxalin-6-yl)-1H-pyrazole-3-carboxyamide] as the compound, how does the IC50 read?
**A.** 10 to 100 nM

**Q.** For `Cc1cccc(-n2nc(C(=O)Nc3ccc(Cl)cc3)cc2-c2ccc3nccnc3c2)n1` [Example 189, N-(4-chlorophenyl)-1-(6-methylpyridin-2-yl)-5-(quinoxalin-6-yl)-1H-pyrazole-3-carboxyamide], which IC50 is on record?
**A.** 10 to 100 nM

**Q.** How did the IC50 turn out when `Cc1cccc(-n2nc(C(=O)Nc3ccccc3Cl)cc2-c2ccc3nccnc3c2)n1` [Example 190, N-(2-chlorophenyl)-1-(6-methylpyridin-2-yl)-5-(quinoxalin-6-yl)-1H-pyrazole-3-carboxyamide] was run?
**A.** 100 to 1000 nM

**Q.** With `Cc1cccc(-n2nc(C(=O)Nc3ccc(Br)cc3)cc2-c2ccc3nccnc3c2)n1` [Example 191, N-(4-bromophenyl)-1-(6-methylpyridin-2-yl)-5-(quinoxalin-6-yl)-1H-pyrazole-3-carboxyamide] as the compound, how does the IC50 read?
**A.** 10 to 100 nM

**Q.** With `COc1ccc(NC(=O)c2cc(-c3ccc4nccnc4c3)n(-c3cccc(C)n3)n2)cn1` [Example 192, N-(6-methoxypyridin-3-yl)-1-(6-methylpyridin-2-yl)-5-(quinoxalin-6-yl)-1H-pyrazole-3-carboxyamide] as the compound, how does the IC50 read?
**A.** 10 to 100 nM

**Q.** How did the IC50 turn out when `COc1ccc(CNC(=O)c2cc(-c3ccc4nccnc4c3)n(-c3cccc(C)n3)n2)cc1` [Example 193, N-(4-methoxybenzyl)-1-(6-methylpyridin-2-yl)-5-(quinoxalin-6-yl)-1H-pyrazole-3-carboxyamide] was run?
**A.** ~100 nM

**Q.** Which IC50 does the source give for `Cc1cccc(-n2nc(C(=O)NCc3ccc(C#N)cc3)cc2-c2ccc3nccnc3c2)n1` [Example 194, N-(4-cyanobenzyl)-1-(6-methylpyridin-2-yl)-5-(quinoxalin-6-yl)-1H-pyrazole-3-carboxyamide] here?
**A.** > 100 nM

**Q.** How did the IC50 turn out when `CC(=O)c1cccc(CNC(=O)c2cc(-c3ccc4nccnc4c3)n(-c3cccc(C)n3)n2)c1` [Example 195, N-(3-acetylbenzyl)-1-(6-methylpyridin-2-yl)-5-(quinoxalin-6-yl)-1H-pyrazole-3-carboxyamide] was run?
**A.** 10 to 100 nM

**Q.** With `Cc1cccc(-n2nc(C(=O)NCc3cccc(F)c3)cc2-c2ccc3nccnc3c2)n1` [Example 197, N-(3-fluorobenzyl)-1-(6-methylpyridin-2-yl)-5-(quinoxalin-6-yl)-1H-pyrazole-3-carboxyamide] as the compound, how does the IC50 read?
**A.** 10 to 100 nM

— patent US10954232B2, “Pyrazole derivative as ALK5 inhibitor and uses thereof” (HANMI PHARMACEUTICAL CO., LTD., priority 2016, dated 2021)
